Laboratory results reported in paper PMC6272208, “2-Keto-D-Gluconate-Yielding Membrane-Bound D-Glucose Dehydrogenase from Arthrobacter globiformis C224: Purification and Characterization” (Molecules, 2015).
Structures can show the parent of a compound that is named as a salt.

What was measured:
Format in all cases: biochemical
[1] = test system: T1, membrane-bound D-glucose dehydrogenase (GlcDH) from Arthrobacter globiformis C224; test: single-substrate kinetics, Lineweaver-Burk; conditions: pH 5.0 (Table 5); general assay uses ferricyanide as electron acceptor in McIlvaine buffer, stated there as pH 3.0
T1 construct: gene gcd; native, purified from membrane fraction of C224 (Triton X-114, precipitations, hydroxylapatite); 87 kDa, single SDS-PAGE band, no subunits
From the text: single-substrate kinetics, Lineweaver-Burk on membrane-bound D-glucose dehydrogenase (GlcDH) from Arthrobacter globiformis […]

[2] = test system: T1, membrane-bound D-glucose dehydrogenase (GlcDH) from Arthrobacter globiformis C224; test: dual-substrate initial velocity kinetics (ping-pong); conditions: artificial electron acceptor; glucose as co-substrate (5-80 mM), PMS 50-200 µM
[3] = biological target: T1, membrane-bound D-glucose dehydrogenase (GlcDH) from Arthrobacter globiformis C224; test: steady-state product inhibition kinetics, Lineweaver-Burk; conditions: competitive towards PMS; PMS varied at 33 mM glucose, gluconic acid 0-200 mM; read-out: inhibition constant

Km [1] [µM] | SMILES | further results
460 ± 20 | OC[C@H]1OC(O)[C@H](O)[C@@H](O)[C@H]1O (stereo partly drawn) [D-galactose] | 
210 ± 10 | OC[C@H]1OC(O)[C@H](O)[C@@H](O)[C@@H]1O (stereo partly drawn) [D-glucose] | 
340 ± 20 | OC1OC[C@@H](O)[C@H](O)[C@H]1O (stereo partly drawn) [D-xylose] | 
 | C[n+]1c2ccccc2nc2ccccc21 [N-methylphenazonium methyl sulfate] | Km [2]: 400 µM
 | O=C(O)[C@H](O)[C@@H](O)[C@H](O)[C@H](O)CO [gluconic acid] | Ki [3]: 11.4 mM
590 ± 30 | OC[C@H]1O[C@H](O[C@H]2[C@H](O)[C@@H](O)C(O)O[C@@H]2CO)[C@H](O)[C@@H](O)[C@@H]1O (stereo partly drawn) [maltose] | 
